Tests used:
[1] = Crystallization of TBA-containing solution depending on amount of DMSO added (test paper, room temperature); type: physicochemical; details: test paper immersed in TBA solution, standing at room temperature, increasing amount of DMSO (FIG. 1)
Description: FIG. 1 is an image showing crystallization of a solution containing TBA as a color indicator depending on the amount of DMSO added.

[2] = Solubility of TBA in solvent with or without DMSO; type: physicochemical
Protocol: In the prior art (Korean Patent Laid-open No. 10-2013-0088623), the amount of TBA added was only 2 to 3%.
In the conventional published Patent No. 10-2013-0088623, the addition of 2 to 3 parts by weight of 1,3-diethyl-2-thiobarbituric acid (TBA) was determined to be an appropriate concentration with respect to 100 parts by weight of distilled water due to the solubility problem of TBA thereof. However, in the present invention, the solubility problem of TBA is solved by adding DMSO. By adding DMSO, 3.5 parts or more by weight of TBA can be dissolved in 100 parts by weight of distilled water or ethanol.
In the present example, DMSO (dimethyl sulfoxide) was added to the TBA solution. […] DMSO is an important solvent that dissolves both polar and nonpolar compounds, and can be used in combination with various organic solvents as well as water.
It was difficult to dissolve TBA in an amount of 3.5 parts by weight or more based on 100 parts by weight of the solvent in accordance with the method of the conventional art disclosed in published Patent No. 10-2013-0088623, and although dissolved, TBA was precipitated during the process.

CCN1C(=O)CC(=O)N(CC)C1=S [TBA, 1,3-diethyl-2-thiobarbituric acid]
TBA recrystallization [1]: TBA recrystallization decreased
TBA dissolved in distilled water ([2]; distilled water, no DMSO): not dissolved in distilled water
TBA dissolved in ethanol ([2]; ethanol, no DMSO): about 3.5%
amount of TBA that can be dissolved by the conventional method ([2]; per 100 parts by weight of solvent, no DMSO (method of KR 10-2013-0088623), precipitated during the process): < 3.5 parts by weight
